The compounds below were run against T1, Bcl-2-like protein 2 (Homo sapiens, UniProt Q92843) (assay: Bcl-W/Bim complex disruptors – biochemical, multiplexed, bead-based flow cytometry, HTS hits, confirmation (AID 2081)). Details: not given.
T1 sequence (Q92843 whole entry): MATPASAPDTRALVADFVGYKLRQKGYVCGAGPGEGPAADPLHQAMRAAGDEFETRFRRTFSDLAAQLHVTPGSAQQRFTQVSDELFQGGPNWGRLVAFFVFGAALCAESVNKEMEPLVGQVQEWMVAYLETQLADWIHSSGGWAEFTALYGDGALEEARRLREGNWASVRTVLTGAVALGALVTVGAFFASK

EC50 [µM] | Structure (SMILES)
1.31 | Cc1nnc(Sc2cc(NCCO)c([N+](=O)[O-])c3nonc23)s1 [2-[[7-[(5-methyl-1,3,4-thiadiazol-2-yl)thio]-4-nitro-2,1,3-benzoxadiazol-5-yl]amino]ethanol]
0.62 | CC(=O)OCCCNc1cc(Sc2nc3ccccc3s2)c2nonc2c1[N+](=O)[O-] [MLS000521052]
3.35 | COc1ccccc1NC1=C(NC(C)=O)C(=O)c2ccccc2C1=O [N-[3-(2-methoxyanilino)-1,4-dioxonaphthalen-2-yl]acetamide]
2.64 | Cc1cc2nn(-c3cccc4ccccc34)nc2cc1N [SMR000076237]

Same assay, conditions: inactive by the depositor's call

EC50 [µM] | Structure (SMILES)
21.2 | O=C(/C=C/c1ccc(-c2ccccc2[N+](=O)[O-])o1)c1ccccc1
26 | CCOc1ccccc1CNc1ccc(O)cc1
11.4 | O=C(NCc1ccccc1)c1ccc2nc(-c3ccco3)c(-c3ccco3)nc2c1 [2,3-bis(furan-2-yl)-N-(phenylmethyl)quinoxaline-6-carboxamide]
47.3 | CNC1CCC(Br)CC(C(=O)C=Cc2cccc(OC)c2OC)C1=O (configuration not stated) [4-bromo-2-[(E)-3-(2,3-dimethoxyphenyl)-1-oxoprop-2-enyl]-7-(methylamino)-1-cycloheptanone]
23 | COc1cc(/N=C2\SSNC2Cl)c(OC)cc1Cl (configuration not stated) [4-chloro-N-(4-chloro-2,5-dimethoxyphenyl)-5-dithiazolidinimine]
15.5 | Clc1nc(NCc2cccnc2)nc(N2CCOCC2)n1 [MLS000121154]
20.8 | COc1ccc(CCNC(=O)c2ccc3nc(-c4ccco4)c(-c4ccco4)nc3c2)cc1OC [N-[2-(3,4-dimethoxyphenyl)ethyl]-2,3-di-2-furylquinoxaline-6-carboxamide]
20.5 | Oc1ccc(NCc2ccccc2OCc2ccccc2)cc1 [SMR000231540]

— BindingDB's records for doi:10.7270/Q2CZ35MZ (Nmmlsc, 2009)
